Results as given in patent publication US9949479B2 (priority 2015, dated 2018).
Converted amounts (≈) assume the structure as drawn.

Tested on: Fusarium graminearum
Assay: microbe, parasite or virus in culture
Type: cell-based

SMILES: CC1(C)CCC(Cc2ccc(Cl)cc2)C1(O)Cn1cncn1 (stereo not drawn) [Metconazole]
- ED50 (F.g carbendazim-resistant strains): 0.113 µg/mL (≈ 0.353 µM)
- ED50 (F.g phenamacril-resistant strains): 0.115 µg/mL (≈ 0.36 µM)
- inhibition at 0.125 µg/mL (Fusarium graminearum, read-out: inhibitory effect on hyphal growth): > 50%
